From patent publication US11584743B2, “Indole derivatives as estrogen receptor degraders” (Arvinas Operations, Inc., priority 2016, dated 2023)

Experiment: Single dose subcutaneous pharmacokinetics in CD-1 mice
Assay type: in vivo
Conditions: mouse, plasma, sc, 10 mg/kg single dose
Procedure: Single Dose Subcutaneous Pharmacokinetics in CD-1 Mice The subcutaneous bioavailability was determined in the following study: three CD-1 mice were dosed by subcutaneous injection (10 mg/kg) and plasma was collected at the following hourly time points (0.25, 0.5, 1, 2, 4, 8, and 24 h). Plasma compound concentations were determined by HPLC.

bioavailability (read-out: F % (subcutaneous bioavailability)): 100%
AUC(0-inf): 8.28 µg·h/mL
Cmax: 0.687 µg/mL
Tmax: 4 h
half-life: 12 h
SMILES: Cc1ncsc1-c1ccc([C@H](C)NC(=O)[C@@H]2C[C@@H](O)CN2C(=O)[C@@H](NC(=O)COCCOCCOCCOc2ccc(Cn3c(-c4ccc(O)cc4)c(C)c4cc(O)ccc43)cc2)C(C)(C)C)cc1 [Example #5, (2S,4R)-4-hydroxy-1-[(2S)-2-[1-(4-[[5-hydroxy-2-(4-hydroxyphenyl)-3-methyl-1H-indol-1-yl]methyl]phenyl)-1,4,7,10-tetraoxadodecan-12-amido]-3,3-dimethylbutanoyl]-N-[(1S)-1-[4-(4-methyl-1,3-thiazol-5-yl)phenyl]ethyl]pyrrolidine-2-carboxamide]
